What all share (assay type): biochemical
The target in experiment [1] is T1, MALT1 (Homo sapiens, UniProt Q9UDY8).
T1 sequence (Q9UDY8 1-824): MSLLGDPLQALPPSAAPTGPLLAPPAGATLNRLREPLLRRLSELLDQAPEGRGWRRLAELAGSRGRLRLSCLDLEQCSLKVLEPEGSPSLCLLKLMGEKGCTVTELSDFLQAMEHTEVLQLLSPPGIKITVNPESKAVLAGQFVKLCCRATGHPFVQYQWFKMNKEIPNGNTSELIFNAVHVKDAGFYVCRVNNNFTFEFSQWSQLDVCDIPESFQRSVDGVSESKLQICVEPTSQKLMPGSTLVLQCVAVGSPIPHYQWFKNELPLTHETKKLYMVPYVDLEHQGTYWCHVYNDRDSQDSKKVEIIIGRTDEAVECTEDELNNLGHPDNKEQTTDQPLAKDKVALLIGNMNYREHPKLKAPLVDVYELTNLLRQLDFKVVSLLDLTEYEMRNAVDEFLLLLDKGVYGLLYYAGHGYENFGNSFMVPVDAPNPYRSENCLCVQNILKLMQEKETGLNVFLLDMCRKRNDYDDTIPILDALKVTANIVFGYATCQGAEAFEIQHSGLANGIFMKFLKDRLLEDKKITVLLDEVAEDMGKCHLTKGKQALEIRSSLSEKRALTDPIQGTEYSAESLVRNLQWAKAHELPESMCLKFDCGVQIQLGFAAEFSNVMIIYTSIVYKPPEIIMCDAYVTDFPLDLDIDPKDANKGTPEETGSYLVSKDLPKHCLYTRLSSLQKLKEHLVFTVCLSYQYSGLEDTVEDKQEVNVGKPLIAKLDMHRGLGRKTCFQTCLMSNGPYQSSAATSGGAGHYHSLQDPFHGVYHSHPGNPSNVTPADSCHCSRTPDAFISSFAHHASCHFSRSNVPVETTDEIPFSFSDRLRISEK
As to the kind of experiment: Kinetic assay of ACC fluorogenic substrates (kcat, Km, kcat/Km). The procedure:
Figure 2 MALT1 substrate activity. Panel a. kcat/Km values for MALT1 substrates compared with that of the reference substrate (ALVSR). MALT1 was incubated at 37 °C for 30 minutes and added to the wells containing the substrate at varying concentrations. Relative fluorescence units were measured over time at excitation/emission wavelengths of 355/460 nm for at least 10 minutes. The data represent averages of three separate measurements, and error bars represent standard deviations. Panel b. Structure of our best (lower panel) and the reference (upper panel) MALT1 fluorogenic substrate.
(§1) All kinetic assays were performed with a Spectra Max Gemini XPS spectrofluorimeter (Molecular Devices) and 96-well Corning plates. The measurement characteristics were as follows: 37 °C, excitation/emission wavelength of 355/460 nm, cutoff of 455 nm, and varying concentrations of substrates and enzyme. The assay buffer was prepared at 23 °C and contained 50 mM HEPES (2-[4-(2-hydroxyethyl)piperazin-1-yl]ethanesulfonic acid), 100 mM NaCl, 0.9 M sodium citrate and 10 mM dithiothreitol (DTT) (pH 7.5). MALT1^FL or MALT1^CD were preincubated for 30 minutes at 37 °C before being added to wells containing substrate. Next, the increase in fluorescence was recorded over the time. Only the linear portions of the curves were used for calculations. The kcat and Km values were calculated using GraphPad Prism and Microsoft Excel software. All measurements were repeated three times, and the data presented are averages of these replicates. […]
was carried out after each coupling and Fmoc deprotection step. The N terminus was protected with an acetyl group using 5 eq AcOH, 5 eq HBTU, and 5 eq DIPEA in DMF.
After solvent removal, the resin was washed six times with DMF in order to remove excess reagents, three times with DCM, and three times with MeOH and then dried over P2O5 and cleaved from the resin with a TFA/TIPS/H2O mixture (%, v/v/v, 95:2.5:2.5).
The crude product was purified by HPLC and lyophilized. The purity of each substrate was confirmed by analytical HPLC, and each substrate was analyzed using HRMS.
(§2) Substrates were dissolved in peptide-grade DMSO to a concentration of 20 mM and stored at -80°C until use.
(§3) Calculation of kcat, Km and kcat/Km values
(§4) Kinetic parameters were calculated under the same conditions as the library with slight modification. The total reaction volume in each well was 100 μL. The substrate and enzyme concentrations used ranged from 3.90 μM to 150 μM and 40 μM, respectively.
(§5) The increase in relative fluorescence units was monitored for 20-30 minutes, and only the linear parts of the curves were used to determine the rate of the reaction. The kcat and Km values were calculated using GraphPad Prism software. All measurements were repeated three times using the appropriate concentration of the enzyme, and the data presented are averages of these repetitions.

For the next experiment, the target named is T2, MALT1^FL (Homo sapiens, UniProt Q9UDY8).
T2 construct: treating full-length MALT1 (MALT1^FL), the MALT1 catalytic domain (MALT1^CD)
T2 sequence (Q9UDY8 1-824): T1 sequence (Q9UDY8 1-824)
Put plainly: Kinetic assay of IQF substrates, full-length enzyme. The conditions noted are these: IQF substrate, ACC/Lys(Dnp) pair; 37 °C, assay buffer pH 7.5; 355/460 nm; average of three. The procedure:
as §1, §2, §3, §4, §5

The target in a further experiment is T3, MALT1^CD (Homo sapiens, UniProt Q9UDY8).
T3 construct: the MALT1 catalytic domain (MALT1^CD)
T3 sequence (Q9UDY8 348-562 limits assumed): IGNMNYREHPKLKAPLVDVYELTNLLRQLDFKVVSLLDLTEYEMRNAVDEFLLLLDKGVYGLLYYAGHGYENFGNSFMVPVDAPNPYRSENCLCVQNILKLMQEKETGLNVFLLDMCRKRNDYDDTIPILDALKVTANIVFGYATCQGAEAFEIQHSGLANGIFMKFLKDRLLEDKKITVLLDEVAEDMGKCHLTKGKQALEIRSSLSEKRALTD
Put plainly: Kinetic assay of IQF substrates, catalytic domain. The conditions noted are these: IQF substrate, ACC/Lys(Dnp) pair; 37 °C, assay buffer pH 7.5; 355/460 nm; average of three. The procedure: as §1, §2, §3, §4, §5

The target in experiment [2] is T1, MALT1. Put plainly: P5 library screening (Ac-P5-LVSR-ACC). The conditions noted are these: 100 nM MALT1, 1 µM substrate, 37 °C; 355/460 nm; average of three. The method, then: Figure 1 MALT1 S5-S2 substrate preferences. Panel a. Substrate preferences of the MALT1 S4-S2 pockets; 100 μM library component was treated with 130 nM active site-titrated MALT1 in assay buffer containing 50 mM HEPES, 100 mM NaCl, 0.9 M sodium citrate and 10 mM DTT at pH 7.5. Panel b. Structures of the preferred amino acid residues at the P4-P2 positions of MALT1. Panel c. MALT1 P5 specificity. Specificity profile of MALT1 was determined with the library of general structure Ac-P5-LVSR-ACC; 100 nM MALT1 was incubated at 37 °C for 10 minutes, followed by the addition of 1 µM substrate. Relative fluorescence units were measured over time at excitation/emission wavelengths of 355/460 nm for at least 10 minutes. The data represent averages of three separate measurements, and error bars represent standard deviations.

Experiment [3] concerns MALT1 in RAW 264.7 cell lysates. Put plainly: Labeling of active MALT1 in RAW 264.7 cell lysates. The conditions noted are these: RAW 264.7 lysates pretreated with 1 µL of 10 mM mepazine, then 500 nM PKG105. The method, then:
Figure 3 Probe to detect active MALT1. Panel a. Structure of the MALT1 probe (PKG105). Panel b. RAW 264.7 cell lysates were incubated with PKG105 at various concentrations. As a control, lysates were pretreated with mepazine, followed by incubation with probe. Lysates that were not treated with mepazine were also used. SDS-PAGE was performed at 165 V. Fluorescence was scanned using the 700 nm channel (LI-COR). Gels are representative of at least two replicates. TEXT PRINTED IN THE PICTURE: (a) PKG105: kobs/I = 92,000 M^-1s^-1
Twenty-five microliters of RAW 264.7 cell lysates (from 5 * 10^6 cells/mL) were incubated with PKG105 at concentrations ranging from 8 to 500 nM. As controls, cells that were not incubated with probe or cells that were pretreated with 1 µL of 10 mM mepazine were treated with 500 nM PKG105. The lysates were incubated with the probe for 30 minutes at 37 °C, followed by denaturation in 3 × SDS-loading buffer for 5 minutes at 95 °C. SDS-PAGE was performed under reducing conditions for 37 minutes at 165 V. The fluorescence signal in the gel was measured using a Li-Cor (Odyssey®) at a wavelength of 700 nm.

[4] abbreviates: 37 °C, 50 mM HEPES, 100 mM NaCl, 0.9 M sodium citrate, 10 mM DTT, pH 7.5, substrate 3.90-150 μM, ACC fluorescence 355/460 nm, average of three measurements.

Non-standard residues stand in square brackets, D forms with d. *: point of attachment. ACC = NC(=O)Cc1cc(=O)oc2cc(N*)ccc12; Abu = CC[C@H](N)C(=O)O

The source of these data is PMC6207715, “Determination of extended substrate specificity of the MALT1 as a strategy for the design of potent substrates and activity-based probes” (Scientific Reports, 2018).

Turning to “Ac-[dV]LVSR-{ACC} (SMILES CC(=O)N[C@@H](C(=O)N[C@@H](CC(C)C)C(=O)N[C@H](C(=O)N[C@@H](CO)C(=O)N[C@@H](CCCNC(=N)N)C(=O)Nc1ccc2c(CC(N)=O)cc(=O)oc2c1)C(C)C)C(C)C) [Ac-D-Val-LVSR-ACC]”, on MALT1 [1] (setting [4]), the Km is 19.2 ± 2.5 µM and the kcat was 0.15 ± 0.012 s⁻¹.

Turning to “H2N-ACC-Ahx-A-L-V-S-R–G-Nva-K(Dnp)G-OH [Substrate M1]”, the “kcat/Km, MALT1^FL” value on MALT1^FL was 4.8 * 10^3 ± 362 M^−1s^−1. For the same molecule, the “kcat/Km, MALT1^CD” value on MALT1^CD is on record as 3.5 * 10^3 ± 165 M^−1s^−1.

Consider “Ac-KLVSR-{ACC} (SMILES CC(=O)N[C@@H](CCCCN)C(=O)N[C@@H](CC(C)C)C(=O)N[C@H](C(=O)N[C@@H](CO)C(=O)N[C@@H](CCCNC(=N)N)C(=O)Nc1ccc2c(CC(N)=O)cc(=O)oc2c1)C(C)C) [Ac-Lys-LVSR-ACC]”, for which, at MALT1 [1] (setting [4]), the Km worked out at 25.5 ± 3.56 µM and the kcat was 0.12 ± 0.0010 s⁻¹.

Regarding “Ac-RLVSR-{ACC} (SMILES CC(=O)N[C@@H](CCCNC(=N)N)C(=O)N[C@@H](CC(C)C)C(=O)N[C@H](C(=O)N[C@@H](CO)C(=O)N[C@@H](CCCNC(=N)N)C(=O)Nc1ccc2c(CC(N)=O)cc(=O)oc2c1)C(C)C) [Ac-Arg-LVSR-ACC]”, on MALT1 [1] (setting [4]), the Km worked out at 19.06 ± 0.05 µM and the turnover number (kcat) worked out at 0.12 ± 0.0003 s⁻¹.

Regarding Ac-Y(Bzl)-L-V-S-R-ACC-OH, the “activity at the P5 position in the library screen” value at MALT1 [2] is listed as “least active”.

As for Ac-Phe(guan)-LVPR-ACC-OH, the kcat/Km on MALT1 [1] (setting [4]) was 28,000 s^−1M^−1. The “rate of substrate hydrolysis (kcat/Km)” value on MALT1 [1] (estimated) is listed as 28,000 M^−1s^−1. In addition, the “kcat/Km relative to the best reported substrate to date” value on MALT1 [1] (times higher) is on record as “approximately 3.5 times”.

As for “H2N-ACC-Ahx-A-L-V-S-R–G-Abu-K(Dnp)G-OH [Substrate M2]”, the “kcat/Km, MALT1^FL” value at MALT1^FL is listed as 5.5 * 10^3 ± 291 M^−1s^−1. Further, the “kcat/Km, MALT1^CD” value at MALT1^CD was 2.6 * 10^3 ± 38 M^−1s^−1.

As to “Ac-TLVSR-{ACC} (SMILES CC(=O)N[C@H](C(=O)N[C@@H](CC(C)C)C(=O)N[C@H](C(=O)N[C@@H](CO)C(=O)N[C@@H](CCCNC(=N)N)C(=O)Nc1ccc2c(CC(N)=O)cc(=O)oc2c1)C(C)C)[C@@H](C)O) [Ac-Thr-LVSR-ACC]”, at MALT1 [1] (setting [4]), the Km came to 22.4 ± 9.94 µM and the kcat came out at 0.12 ± 0.0050 s⁻¹.

On to “H2N-ACC-Ahx-A-L-V-S-R–G-Thr-K(Dnp)G-OH [Substrate M3]”, for which the “kcat/Km, MALT1^FL” value on MALT1^FL was 6.3 * 10^3 ± 311 M^−1s^−1. On MALT1^CD, the “kcat/Km, MALT1^CD” value was 2.8 * 10^3 ± 101 M^−1s^−1.

Regarding `CN1CCCC(CN2c3ccccc3Sc3ccccc32)C1` (stereo not shown) [Mepazine, reference compound], the “effect of inhibitor pretreatment on probe labeling” value in experiment [3] is “inhibited MALT1”.

For “Ac-ALVSR-{ACC} (SMILES CC(=O)N[C@@H](C)C(=O)N[C@@H](CC(C)C)C(=O)N[C@H](C(=O)N[C@@H](CO)C(=O)N[C@@H](CCCNC(=N)N)C(=O)Nc1ccc2c(CC(N)=O)cc(=O)oc2c1)C(C)C) [Ac-Ala-LVSR-ACC, reference compound]”, on MALT1 [1] (setting [4]), the Michaelis-Menten constant (Km) was 9.45 ± 2.46 µM and the kcat turned out to be 0.089 ± 0.033 s⁻¹.

With “Ac-[Abu]LVSR-{ACC} (SMILES CC[C@H](NC(C)=O)C(=O)N[C@@H](CC(C)C)C(=O)N[C@H](C(=O)N[C@@H](CO)C(=O)N[C@@H](CCCNC(=N)N)C(=O)Nc1ccc2c(CC(N)=O)cc(=O)oc2c1)C(C)C) [Ac-Abu-LVSR-ACC]”, at MALT1 [1] (setting [4]), the Km was 22.15 ± 0.01 µM and the kcat worked out at 0.19 ± 0.0295 s⁻¹.

Consider “Ac-[dA]LVSR-{ACC} (SMILES CC(=O)N[C@H](C)C(=O)N[C@@H](CC(C)C)C(=O)N[C@H](C(=O)N[C@@H](CO)C(=O)N[C@@H](CCCNC(=N)N)C(=O)Nc1ccc2c(CC(N)=O)cc(=O)oc2c1)C(C)C) [Ac-D-Ala-LVSR-ACC]”, for which, at MALT1 [1] (setting [4]), the Km worked out at 24.4 ± 6.97 µM and the kcat was 0.076 ± 0.034 s⁻¹.

A word on the Km: it is the concentration of substrate that gives half-maximal velocity. For orientation: kcat means the maximal rate divided by the concentration of active sites.
